Experiment in all cases: growth of human tumour cells (NCI), 48 h
The subject of test [1] is HS 578T breast.
Test [2] has as its system M14 melanoma.
Test [3] has as its system UACC-257 melanoma.
Test [4] concerns ACHN renal.
Test [5] has as its system NCI-H460 lung.
The test system of test [6] is SN12C renal.
Test [7] deals with MOLT-4 leukemia.
The subject of test [8] is SK-MEL-5 melanoma.
The subject of test [9] is SNB-19 CNS.
The subject of test [10] is U251 CNS.

“And” between values parts separate entries of the source, which are not always exact repeats. Identical values can stand only once.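 Growth conditions: 96-well plates. Treatment: test compound, 48 hours, 5 concentrations. Analysis: linear interpolation between bracketing concentrations; unreached endpoints set to highest concentration. GI50 marks 50% less growth. TGI: concentration producing complete growth inhibition.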

In the case of `C=CC(=O)N1CCC([C@@H]2CCNc3c(C(N)=O)c(-c4ccc(Oc5ccccc5)cc4)nn32)CC1`, the GI50 was 14.7 µM in test [1]; 14.4 µM in test [2]; 16.5 µM in test [3]; 2.34 µM in test [4]; 29.8 µM in test [5]; 12.1 µM in test [6]. Also, the GI50 in test [7] is 15.9 µM; in test [8], 14.5 µM; in test [9] it was 16.9 µM; in [10] it was 17.6 µM. The TGI in test [1] is 46.8 µM; in test [2] it was 31.9 µM; in test [3], 50.4 µM; in [4], greater than 62.6 µM; in test [5], greater than 89.7 µM; in test [6], 80.4 µM. In addition, the TGI in test [7] is greater than 93.6 µM; in test [8], 28.7 µM; in test [9], greater than 100 µM; in test [10], greater than 77.1 µM.
For `C#C[C@@]1(O)[C@@H](CO)O[C@@H](n2ccc3c(N)ncnc32)[C@@H]1O`, the GI50 is 4.67 µM in test [1]; 1.42 µM in [2]; 2.31 µM in [3]; 0.56 µM in test [4]; 0.473 µM in [5]; 0.798 µM in test [6]. Moreover, the GI50 was 0.614 µM in [7], 1.56 µM in test [8], 1.62 µM in [9] and 2.44 µM in test [10]. The TGI in test [1] is greater than 100 µM; in test [2] it was 3 µM; in [3], 7.06 µM; in test [4] it was 4.48 µM; in [5], 10.6 µM; in test [6], 3.91 µM. In addition, the TGI was greater than 100 µM in test [7], 2.96 µM in test [8], 6.61 µM in test [9] and 11.8 µM in test [10].
As to `COc1ccc(/C=C/C(=O)c2ccc3cc(OC)c(OC)cc3c2)cc1OC`, the GI50 in [1] was 3.77 µM; in [2], 5.47 µM; in test [3] it was 6.14 µM; in [4], 3.81 µM; in test [5], 3.35 µM; in test [6] it was 3.41 µM. The GI50 was 3.07 µM in [7], 2.3 µM in [8], 5.29 µM in test [9] and 3.33 µM in [10]. For the same compound, the TGI in test [1] is 41.2 µM; in test [2] it was 21 µM; in test [3], 22.6 µM; in [4], greater than 100 µM; in [5] it was 12.5 µM; in test [6], 31.2 µM. Moreover, the TGI is 9.53 µM in [7], 6.61 µM in test [8], 29.8 µM in [9] and 15.2 µM in test [10].
Regarding `O=C(Nc1ccccc1)NS(=O)(=O)c1ccc(N2N=C3c4ccccc4CC3C2c2ccccn2)cc1` (centres undefined), the GI50 in test [1] was 40.7 µM; in [2], 24.9 µM; in test [3] it was 26.6 µM; in test [4], 23.6 µM; in test [5], 38.5 µM; in test [6], 30.4 µM. The GI50 is 11.6 µM in [7], 23.6 µM in test [8], 83.9 µM in [9] and 31.9 µM in test [10]. Further, the TGI in test [1] was greater than 100 µM; in test [2] it was 51.4 µM; in test [3] it was 76.6 µM; in [4], 68.8 µM; in [5], greater than 100 µM; in [6], greater than 100 µM. In addition, the TGI in test [7] was greater than 100 µM; in test [8] it was 47 µM; in test [9] it was greater than 100 µM; in [10], greater than 100 µM.
As to `Nc1ncnc2c(C3OC(CO)C(O)C3O)[nH]nc12` (centres undefined), the GI50 was 0.533 µM in test [1]; 0.248 µM in test [2]; 1.45 µM and 2.1 µM in [3]; 0.0944 µM in test [4]; 0.0434 µM in test [5]; 0.161 µM in test [6]. Besides, the GI50 is 3.59 µM and 2.01 µM in test [7]; 0.984 µM in test [8]; 0.138 µM in test [9]; 1.39 µM in test [10]. In addition, the TGI is 5.34 µM in [1]; 13.5 µM in [2]; 10.2 µM and 26.6 µM in test [3]; 2.12 µM and 1.44 µM in test [5]; 1.68 µM and 1.09 µM in [6]; 38.3 µM in test [7]. For the same compound, the TGI in test [8] was 10.9 µM and 7.47 µM; in test [9], 3.68 µM and 24.8 µM; in test [10], 25.4 µM.
With `O=c1oc2ccc(Cl)cc2c(=O)n1-c1cc(C(F)(F)F)cc(C(F)(F)F)c1`, the GI50 in test [1] is 0.239 µM; in test [2], 0.3 µM; in [3], 0.233 µM; in test [4], 0.303 µM; in test [5] it was 0.308 µM; in test [6], 0.259 µM. The GI50 in test [7] is 0.352 µM; in [8], 0.138 µM; in test [9], 0.293 µM; in test [10] it was 0.254 µM. In addition, the TGI in [1] was determined as 0.987 µM; in test [2], 1.78 µM; in [3], 1.6 µM; in test [4], 10.5 µM; in test [5], 5.16 µM; in [6], 3.8 µM. For the same compound, the TGI came to 2.48 µM in [7], 0.336 µM in test [8], 11.7 µM in [9] and 11.6 µM in test [10].
For `CC[N+]1(C)CCC(O)(c2ccccc2)C(C(=O)c2ccccc2)C1` (centres undefined), the TGI in [1] came to 74 µM; in [2], 24.1 µM; in [3] it was 32.7 µM; in [4] it was 23 µM; in test [5], 43 µM; in [6] it was 21.6 µM. For the same compound, the TGI in test [7] was 11.3 µM; in test [8], 33.6 µM; in [9] it was 24.5 µM; in test [10], 43.2 µM.
In the case of `Cc1ccc2c(Nc3cccc(Cl)c3F)ncc(NC(=O)c3csc4c(N)ncnc34)c2c1`, the GI50 in test [1] is greater than 100 µM; in test [2] it was 0.0351 µM; in test [3], 0.0715 µM; in test [4], greater than 100 µM; in test [5], greater than 100 µM; in test [6], greater than 100 µM. The GI50 was greater than 100 µM in test [7], greater than 100 µM in test [8], greater than 100 µM in test [9] and greater than 76.3 µM in test [10]. Further, the TGI in [1] was greater than 100 µM; in test [2], 0.608 µM; in test [3], greater than 100 µM; in test [4], greater than 100 µM; in test [5], greater than 100 µM; in [6], greater than 100 µM. Moreover, the TGI in [7], in [8], in test [9] and in test [10] was greater than 100 µM in each case.
